Reference: patent US20100168031A1, “Lat peptides and their use in assays for identifying immunosuppressants” (priority 2000, published 2010)
Numbered stars: 1 amine (or outer) side, 2 acyl side, 3 side chain; on linkers, the order of the positions; unused ones are H or OH. Peptide text beside a SMILES is read from it. Suc = O=C(CCC(=O)[*:2])[*:1]

Molecular target: T1, ZAP-70 (Homo sapiens, UniProt P43403)
T1 construct: A nucleic acid encoding full-length human ZAP-70 (GenBank #L05148); hexa-histidine (N); made in house; host or cells: Sf9 insect cells (baculovirus)
T1 sequence (P43403 1-619): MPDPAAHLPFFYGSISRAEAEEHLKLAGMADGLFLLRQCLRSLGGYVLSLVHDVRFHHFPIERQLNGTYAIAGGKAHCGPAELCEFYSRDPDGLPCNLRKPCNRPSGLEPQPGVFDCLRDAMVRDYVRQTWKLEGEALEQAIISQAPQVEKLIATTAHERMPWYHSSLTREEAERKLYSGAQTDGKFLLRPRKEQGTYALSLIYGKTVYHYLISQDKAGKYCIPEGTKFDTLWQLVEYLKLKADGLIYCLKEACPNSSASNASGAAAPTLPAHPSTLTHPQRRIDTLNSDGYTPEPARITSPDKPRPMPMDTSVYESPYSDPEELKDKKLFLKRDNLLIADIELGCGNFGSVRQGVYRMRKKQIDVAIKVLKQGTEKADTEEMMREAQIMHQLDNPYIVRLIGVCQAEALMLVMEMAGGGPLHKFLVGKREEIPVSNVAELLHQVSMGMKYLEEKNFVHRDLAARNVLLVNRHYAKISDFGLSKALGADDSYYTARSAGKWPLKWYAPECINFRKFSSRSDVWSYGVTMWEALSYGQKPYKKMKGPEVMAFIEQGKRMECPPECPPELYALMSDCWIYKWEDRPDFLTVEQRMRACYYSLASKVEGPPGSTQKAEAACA
Assay: Phosphorylation of compounds of formula I by ZAP-70 measured in a competitive assay (Example C5)
Type: biochemical
Details: non-biotinylated peptide competing with biotinylated SEQ ID NO:12; Lck-activated ZAP-70, PP2 added, 4 hours at RT; read-out: IC50, inhibition of the phosphorylation of SEQ ID NO:12 by ZAP-70
Method: 80 nM ZAP-70 are incubated with 80 nM Lck and 4 μM ATP in ZAP-70 kinase buffer for 1 hour at RT in a siliconized polypropylene tube. Then, the selective Lck inhibitor PP2 (see Example C2) is added (final concentration 1.2 μM) and incubated for further 10 min.
Ten μl of this solution is mixed with 10 μl biotinylated compound of e.g. SEQ ID NO:12 (1 μM) and 20 μl of the non-biotinylated peptides of compounds of formula I, e.g. by SEQ ID NO:21, SEQ ID NO:15, SEQ ID NO:16 or SEQ ID NO:17 (serial dilution 0.28 to 200 μM) and incubated for 4 hours at RT. Termination of the kinase reaction, detection phase and determination of fluorescence is performed as described in Example C1.

| Compound | IC50 [µM] |
| --- | --- |
| Ac-DYENL-NH2 [SEQ ID NO:17, acetyl-Asp-Tyr-Glu-Asn-Leu-NH2] | 0.6 to 21 |
| Ac-DYENLQELN-OH [SEQ ID NO:15, acetyl-Asp-Tyr-Glu-Asn-Leu-Gln-Glu-Leu-Asn-OH] | 0.6 to 21 |
| Ac-EEGAPDYENL-NH2 [SEQ ID NO:16, acetyl-Glu-Glu-Gly-Ala-Pro-Asp-Tyr-Glu-Asn-Leu-NH2] | 0.6 to 21 |

Second part, the compound after the results:

| IC50 [µM] | Compound |
| --- | --- |
| 0.6 to 21 | CC(C)C[C@H](NC(=O)[C@H](Cc1ccccc1)NC(=O)[C@H](CCC(=O)O)NC(=O)[C@H](Cc1ccc(O)cc1)NC(=O)[C@H](CC(=O)O)NC(=O)CCC(=O)O)C(N)=O [SEQ ID NO:24, HOOC-CH2-CH2-CO-Asp-Tyr-Glu-Phe-Leu-NH2] (Suc-DYEFL-NH2) |
| 0.6 to 21 | CC(C)C[C@H](NC(=O)[C@H](CC(N)=O)NC(=O)[C@H](CCC(=O)O)NC(=O)[C@H](Cc1ccc(O)cc1)NC(=O)[C@H](CC(=O)O)NC(=O)CCC(=O)O)C(N)=O [SEQ ID NO:22, HOOC-CH2-CH2-CO-Asp-Tyr-Glu-Asn-Leu-NH2] (Suc-DYENL-NH2) |
| 0.6 to 21 | Ac-EEGAPDYENLQELN-OH [SEQ ID NO:21, acetyl-Glu-Glu-Gly-Ala-Pro-Asp-Tyr-Glu-Asn-Leu-Gln-Glu-Leu-Asn-OH] |
| 0.6 to 21 | CC(C)C[C@H](NC(=O)[C@H](CC(N)=O)NC(=O)[C@H](CCC(=O)O)NC(=O)[C@H](Cc1ccc(O)cc1)NC(=O)[C@H](CC(=O)O)NCC(=O)O)C(N)=O [SEQ ID NO:23, HOOC-CH2-Asp-Tyr-Glu-Asn-Leu-NH2] |
